Assays:
Format in all cases: functional
[1] = test system: Aspergillus niger; assay: Antimicrobial activity against Aspergillus niger assessed as diameter of growth inhibition zone
[2] = test system: Escherichia coli; assay: Antimicrobial activity against Escherichia coli assessed as diameter of growth inhibition zone after 48 hr by agar cup plate method
[3] = test system: Staphylococcus aureus; assay: Antimicrobial activity against Staphylococcus aureus assessed as diameter of growth inhibition zone after 48 hr by agar cup plate method
[4] = test system: Bacillus subtilis; assay: Antimicrobial activity against Bacillus subtilis assessed as diameter of growth inhibition zone after 48 hr by agar cup plate method
[5] = test system: Salmonella typhi; assay: Antimicrobial activity against Salmonella enterica subsp. enterica serovar Typhi assessed as diameter of growth inhibition zone after 48 hr by agar cup plate method

| SMILES | inhibition zone (IZ) [1] [mm] | inhibition zone (IZ) [2] [mm] | inhibition zone (IZ) [3] [mm] | inhibition zone (IZ) [4] [mm] | inhibition zone (IZ) [5] [mm] |
| --- | --- | --- | --- | --- | --- |
| Cc1c/c(=N/CC/N=c2/cc(C)c3ccc(O)c(/N=N/c4c(C)n(C)n(-c5ccccc5)c4=O)c3o2)oc2c(/N=N/c3c(C)n(C)n(-c4ccccc4)c3=O)c(O)ccc12 | >15 | 10 | 10 | >15 |  |
| Cc1c/c(=N/CC/N=c2/cc(C)c3ccc(O)c(/N=N/c4cccnc4)c3o2)oc2c(/N=N/c3cccnc3)c(O)ccc12 | <5 | 10 | >15 | >15 | >15 |
| CC1(C)S[C@@H]2[C@H](NC(=O)[C@H](N)c3ccccc3)C(=O)N2[C@H]1C(=O)O [AMPICILLIN] | 10 | >15 | 10 | >15 | >15 |
| Cc1c/c(=N/CC/N=c2/cc(C)c3ccc(O)c(/N=N/c4cccc5ccccc45)c3o2)oc2c(/N=N/c3cccc4ccccc34)c(O)ccc12 | >15 | >15 | >15 | >15 | >15 |
| Cc1c/c(=N/CC/N=c2/cc(C)c3ccc(O)c(/N=N/C4=NCCS4)c3o2)oc2c(/N=N/C3=NCCS3)c(O)ccc12 | >15 | >15 | >15 | 10 | >15 |
| CN[C@@H]1[C@H](O[C@H]2[C@H](O[C@H]3[C@H](O)[C@@H](O)[C@H](N=C(N)N)[C@@H](O)[C@@H]3N=C(N)N)O[C@@H](C)[C@]2(O)C=O)O[C@@H](CO)[C@H](O)[C@H]1O [STREPTOMYCIN] | >15 | 10 | >15 | >15 | >15 |
| Cc1c/c(=N/CC/N=c2/cc(C)c3ccc(O)c(/N=N/c4ccccn4)c3o2)oc2c(/N=N/c3ccccn3)c(O)ccc12 | >15 | >15 | >15 | >15 | >15 |
| Cc1c/c(=N/CC/N=c2/cc(C)c3ccc(O)c(/N=N/c4ccncc4)c3o2)oc2c(/N=N/c3ccncc3)c(O)ccc12 | >15 | >15 | >15 | 10 | 10 |

Reference: ChEMBL document CHEMBL3045724, “Synthesis, biopharmaceutical characterization, and antimicrobial study of novel azo dyes of 7-hydroxy-4-methylcoumarin” (2013)
